Measurements as given in patent US20260152777A1, “METHOD FOR PRODUCING EPIGALLOCATECHIN GALLATE MONOGLUCOSIDE” (GIVAUDAN SA, priority 2022, published 2026).

Legend:
Assay type in all cases: in vivo, human
[1] = tested on: female Caucasian volunteers presenting brown spots on their hands; assay: Clinical study: age-spot removal by Raman spectroscopy (skin background fluorescence, melanin detection); settings: for Melanin detection Mean +/− SD / Melanin detection TBX − TB0: hands, twice daily, Caucasian women
Method: A double blind and placebo controlled clinical evaluation was carried out on 45 female Caucasian volunteers aged from 45 to 75 years. The volunteers were presenting brown spots on their hands. All the subjects participating in the study gave their informed consent at the beginning of the study. […] At D0 and D56, the anti-spot efficacy was analyzed by Raman spectroscopy. The compositions described in Example 12 were used. The set-up included a confocal Raman probe coupled to a dispersive Raman spectrograph. The excitation laser beam was sent to the remote probe via a 5 μm core-diameter fiber and the Raman signal was conveyed to the spectrograph via a 100 μm core-diameter fiber. The probe was equipped with a 100× long working distance objective operating in air. A piezo-electric device allowed to collect Z Raman profiles by assuring axial measurements from the surface down to a defined depth in the skin. A color video camera integrated in the probe permitted to visualize the skin surface. This camera is also useful to control the focalization of the laser on the skin. The spectrograph was equipped with a CCD (Coupled Charge Detector) of 1024×256 elements cooled by Peltier effect, and an 830 grooves/mm grating, which allows to cover a large spectral range from 550 to 3700 cm^−1 in a single shot acquisition, with a spectral resolution of about 6 cm^−1. The excitation source was a 660 nm laser diode and the power at the sample was set to 30 mW in accordance with protection standards for radiation. For protection against laser radiation, protective glasses were used. The 660 nm excitation was chosen as the optimal compromise between generation of parasitic fluorescence and sensitivity of the CCD camera over the whole spectral range. For skin characterization, the measurement of high wavenumber vibrations is important to access information on water content. For data acquisition, the device was controlled by the Labspec 5 software. The Z profiles consist of an in-depth scanning through the skin. Raman spectra were collected at different focus points, from skin surface Z=0 μm to 30 μm (under the skin surface) with 3 μm steps. The measurement depths are indicated in the following table with the corresponding acquisition times, leading to a time of 1 min for a complete profile. In total, 519 Raman profiles were recorded: 2 profiles per condition and for each area (unstained area and brown spot area). Each profile comprises 14 spectra, resulting in recorded 7266 spectra. These measurements were used for the evaluation of the spectroscopic marker of skin background fluorescence. This marker is associated with the degree of skin lightening: A decrease in this marker indicates a positive skin lightening effect, whereas a stability or an increase in this marker means that the product has no lightening effect on the skin. The pre-processing of spectral data was performed using Matlab 7.2 (The MathWorks Inc., USA). Aberrant profiles (bad S/N (signal/noise) ratio, fluorescence, incomplete profile with a large zero offset, saturation . . . ) were excluded from the data base. Each non-aberrant profile was submitted to background corrections, which allowed to clean up the Raman signal of the skin. These background corrections included smoothing spectra with a 9-mm Savitzky-Golay filter, spikes correction, […] the normalization on the intensity of the entire wavenumber range with a vectorial function. A baseline correction was not done in order to preserve the skin background fluorescence, which allows for the extraction of the skin fluorescence markers associated with the degree of skin lightening. After these pre-processing steps, corrected data were used to determine the spectra corresponding to the Stratum corneum surface. […] The skin properties were evaluated using Raman spectroscopy after 28 and 56 days of twice daily application.

[2] = tested on: Asian volunteers with dull skin and large senescence spots; assay: Clinical study: skin color analysis using Colorface (homogeneity, radiance, pigment defect); settings: for Pigment defect Mean +/− SD / Radiance Mean +/− SD / Pigment defect Average volume (mm^3) vs D 0 / Radiance Average variation (%) vs D 0: cream with 2% ascorbic acid, hemiface, Asian women; for pigment homogeneity, fold better than the placebo: vitamin C cream 2%
Source text: For this study, volunteers applied the cream twice a day for 56 days. […]
(§1) Volunteers were divided into two groups as follows: • Group 1: 20 Asian women testing the active cream in comparison to the placebo cream with an average age of 54±5 years. • Group 2: 18 Asian women testing the vitamin C cream in comparison to the placebo cream with an average age of 53±8 years.
(§2) Volunteers applied a cream containing 0.4% of active, 2% of ascorbic acid (vitamin C), respectively, on one hemiface and a placebo cream on the other hemiface […] for 56 days.
(§3) During this study, a skin color and spots analysis was conducted using Colorface®, biomechanical properties were tested using Cutometery®, and the dermis thickness was determined using a DUB SkinScanner 75® probe (max. depth of 3.28 mm).
Skin color measurements were performed based on photos taken with the Colorface® acquisition system. Colorface® is a 2D acquisition system for taking standardized and multimodal photos of the entire face. The device is equipped with a 24M pixel sensor and also has a specific UV lamp. The acquisition methods are: UltraViolet, photo without filter, cross-polarized photo, parallel-polarized photo, standard 45° photo, and standard […].
An analysis of the radiance of the complexion, pigment spots, color (L*,a*,b* parameters) and melanin on the spots from photos using image analysis software was performed. 2D photos of the face were taken on D0, D28 and D56.

[3] = tested on: Asian volunteers with dull skin and large senescence spots; assay: Clinical study: ultrasound measurement of dermis density using DUB SkinScanner; settings: for Dermis density Mean +/− SD / Dermis density change vs D 0: cream with 2% ascorbic acid, hemiface, Asian women
Source text: For this study, volunteers applied the cream twice a day for 56 days.
GLYCOL, DIMETHICONE, FRAGRANCE
as §1, §2, §3
The DUB Skin Scanner system is a high-frequency, high-resolution ultrasound diagnostic tool for use in dermatology, cosmetics and pharmaceuticals and clinical research. 75 MHz ultrasound is a popular method for non-invasive skin analysis. High frequency ultrasound (75 MHz) can explore the superficial layers of the skin and can penetrate up to 3 mm into the skin. Skin ultrasound is based on the population of ultrasound in the skin and on the direction and measurement of the amplitudes of the part reflected by the interfaces separating two media having different characteristics of acoustic waves. An ultrasound imaging technique used for the visualization of the structure of the subcutaneous body allows the evaluation of the homogeneity of the skin, including the density and the skin thickness.
Three measurements of thickness and density were taken to obtain an average for each image.
For this study, the analysis of the density of the dermis was carried out on D0, D28 and D56.

O=C1O[C@H]([C@@H](O)CO)C(O)=C1O [Ascorbic acid, ascorbic acid]
Melanin detection Mean +/− SD ([1]; ascorbic acid at 2%, D 0 (baseline)): 49.80 ± 13.13 arbitrary unit
Melanin detection Mean +/− SD ([1]; ascorbic acid at 2%, D 28): 52.05 ± 11.23 arbitrary unit
Melanin detection TBX − TB0 ([1]; ascorbic acid at 2%, D 28): +2.25 a.u
Melanin detection Mean +/− SD ([1]; ascorbic acid at 2%, D 56): 32.28 ± 10.43 arbitrary unit
Melanin detection TBX − TB0 ([1]; ascorbic acid at 2%, D 56): −17.52 a.u
Pigment defect Mean +/− SD ([2]; D 0 (baseline)): 15660 ± 4532 arbitrary unit
Radiance Mean +/− SD ([2]; D 0 (baseline)): 72.3 ± 1.6 arbitrary unit
Pigment defect Average volume (mm^3) vs D 0 ([2]; D 28): −11.7%
Pigment defect Mean +/− SD ([2]; D 28): 13826 ± 4311 arbitrary unit
Radiance Average variation (%) vs D 0 ([2]; D 28): 0.7%
Radiance Mean +/− SD ([2]; D 28): 72.7 ± 1.9 arbitrary unit
Pigment defect Average volume (mm^3) vs D 0 ([2]; D 56): −16.5%
Pigment defect Mean +/− SD ([2]; D 56): 13078 ± 3731 arbitrary unit
Radiance Average variation (%) vs D 0 ([2]; D 56): 1.4%
Radiance Mean +/− SD ([2]; D 56): 73.3 ± 2.3 arbitrary unit
pigment homogeneity, fold better than the placebo ([2]; day 28): 1.6 fold
pigment homogeneity, fold better than the placebo ([2]; day 56): 1.8 fold
Dermis density Mean +/− SD ([3]; D 0 (baseline)): 37.7 ± 8.1 arbitrary unit
Dermis density Mean +/− SD ([3]; D 28): 39.1 ± 8.3 arbitrary unit
Dermis density change vs D 0 ([3]; D 28): +3.8%
Dermis density Mean +/− SD ([3]; D 56): 40.7 ± 9.2 arbitrary unit
Dermis density change vs D 0 ([3]; D 56): +7.2%

O=C(O[C@@H]1Cc2c(O)cc(O)cc2O[C@@H]1c1cc(O)c(O[C@H]2O[C@H](CO)[C@@H](O)[C@H](O)[C@H]2O)c(O)c1)c1cc(O)c(O)c(O)c1 [epigallocatechin gallate 4′-O-α-monoglucoside]
reduction of skin heterogeneity ([1]; Caucasian volunteers having pigmented spots on their hands): up to −24%
Melanin detection TBX − TB0 ([1]; product with 0.4% purified preparation, D 28): −10.2 a.u
Melanin detection TBX − TB0 ([1]; product with 0.4% purified preparation, D 56): −20.4 a.u
effect on pigment homogeneity, times more pronounced relative to the placebo ([2]; active cream 0.4%, after 28 days): 3.0 times
reduction of pigment defect (melanin content in pigmented spots area) compared to the placebo ([2]; active cream 0.4%, after 56 days): up to −21.7%
increase of the dermis density ([3]; summary statement, clinical evaluation on Asian volunteers): up to 16.6%
